# Like-named read-outs stand apart in the source and are kept apart here.
# How the values were obtained:
# Assay in all cases: Post-emergence efficacy, Method A
# Type in all cases: in vivo
# [1] = system: Amaranthus palmeri (AMAPA); conditions: evaluated after 13 days; for pest or weed control at 500 g/ha: Amaranthus palmeri, post-emergence, 312 h
# Outline: (§1)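 Plants raised 14 days from seed in standard soil in a glasshouse (24/16 °C day/night, 14 h light, 65% humidity) were sprayed with compound dissolved in acetone plus IF50 solvent/emulsifier (50 g/l solution), diluted with 0.25% or 1% Empicol ESC70 + 1% ammonium sulphate. Damage was scored visually after 13 days (0 = none, 100 = total).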
# [2] = system: Chenopodium album (CHEAL); conditions: evaluated after 13 days; for pest or weed control at 500 g/ha: Chenopodium album, post-emergence, 312 h
# Outline: as §1
# [3] = system: Digitaria sanguinalis (DIGSA); conditions: evaluated after 13 days; for pest or weed control at 500 g/ha: Digitaria sanguinalis, post-emergence, 312 h
# Outline: as §1
# [4] = system: Echinochloa crus-galli (ECHCG); conditions: evaluated after 13 days; for pest or weed control at 500 g/ha: Echinochloa crus-galli, post-emergence, 312 h
# Outline: as §1
# [5] = system: Eleusine indica (ELEIN); conditions: evaluated after 13 days; for pest or weed control at 500 g/ha: Eleusine indica, post-emergence, 312 h
# Outline: as §1
# [6] = system: Euphorbia heterophylla (EPHHL); conditions: evaluated after 13 days; for pest or weed control at 500 g/ha: Euphorbia heterophylla, post-emergence, 312 h
# Outline: as §1
# [7] = system: Ipomoea hederacea (IPOHE); conditions: evaluated after 13 days; for pest or weed control at 500 g/ha: Ipomoea hederacea, post-emergence, 312 h
# Outline: as §1
# [8] = system: Lolium perenne (LOLPE); conditions: evaluated after 13 days; for pest or weed control at 500 g/ha: Lolium perenne, post-emergence, 312 h
# Outline: as §1
# [9] = system: Setaria faberi (SETFA); conditions: evaluated after 13 days; for pest or weed control at 500 g/ha: Setaria faberi, post-emergence, 312 h
# Outline: as §1
# [10] = Application rate 500 g/Ha, 100=total damage to plant, 0=no damage to plant, read-out: Control of weed species after post-emergence application, AMAPA
# [11] = Application rate 500 g/Ha, 100=total damage to plant, 0=no damage to plant, read-out: Control of weed species after post-emergence application, CHEAL
# [12] = Application rate 500 g/Ha, 100=total damage to plant, 0=no damage to plant, read-out: Control of weed species after post-emergence application, DIGSA
# [13] = Application rate 500 g/Ha, 100=total damage to plant, 0=no damage to plant, read-out: Control of weed species after post-emergence application, ECHCG
# [14] = Application rate 500 g/Ha, 100=total damage to plant, 0=no damage to plant, read-out: Control of weed species after post-emergence application, ELEIN
# [15] = Application rate 500 g/Ha, 100=total damage to plant, 0=no damage to plant, read-out: Control of weed species after post-emergence application, EPHHL
# [16] = Application rate 500 g/Ha, 100=total damage to plant, 0=no damage to plant, read-out: Control of weed species after post-emergence application, IPOHE
# [17] = Application rate 500 g/Ha, 100=total damage to plant, 0=no damage to plant, read-out: Control of weed species after post-emergence application, LOLPE
# [18] = Application rate 500 g/Ha, 100=total damage to plant, 0=no damage to plant, read-out: Control of weed species after post-emergence application, SETFA
# [19] = Application Rate 500 g/Ha, Method A
# [20] = Application Rate 500 g/Ha, Method A, read-out: Control of weed species after post-emergence application, AMAPA (100=total damage to plant; 0=no damage to plant)
# [21] = Application Rate 500 g/Ha, Method A, read-out: Control of weed species after post-emergence application, CHEAL (100=total damage to plant; 0=no damage to plant)
# [22] = Application Rate 500 g/Ha, Method A, read-out: Control of weed species after post-emergence application, DIGSA (100=total damage to plant; 0=no damage to plant)
# [23] = Application Rate 500 g/Ha, Method A, read-out: Control of weed species after post-emergence application, ECHCG (100=total damage to plant; 0=no damage to plant)
# [24] = Application Rate 500 g/Ha, Method A, read-out: Control of weed species after post-emergence application, ELEIN (100=total damage to plant; 0=no damage to plant)
# [25] = Application Rate 500 g/Ha, Method A, read-out: Control of weed species after post-emergence application, EPHHL (100=total damage to plant; 0=no damage to plant)
# [26] = Application Rate 500 g/Ha, Method A, read-out: Control of weed species after post-emergence application, IPOHE (100=total damage to plant; 0=no damage to plant)
# [27] = Application Rate 500 g/Ha, Method A, read-out: Control of weed species after post-emergence application, LOLPE (100=total damage to plant; 0=no damage to plant)
# [28] = Application Rate 500 g/Ha, Method A, read-out: Control of weed species after post-emergence application, SETFA (100=total damage to plant; 0=no damage to plant)
SMILES,"pest or weed control at 500 g/ha [1, 10]","pest or weed control at 500 g/ha [2, 11]","pest or weed control at 500 g/ha [3, 12]","pest or weed control at 500 g/ha [4, 13]","pest or weed control at 500 g/ha [5, 14]","pest or weed control at 500 g/ha [6, 15]","pest or weed control at 500 g/ha [7, 16]","pest or weed control at 500 g/ha [8, 17]","pest or weed control at 500 g/ha [9, 18]",also measured
O=C(O)CC[n+]1ccc(-c2ccnc(O)n2)cn1 [Compound A86],30%,40%,30%,20%,10%,50%,40%,10%,40%,
O=P(O)(O)C[n+]1ccc(-c2ccncn2)cn1 [Compound A236],,,,,,,,,,"Control of weed species after post-emergence application, AMAPA (100=total damage to plant; 0=no damage to plant) [1, 19]: 90; Control of weed species after post-emergence application, CHEAL (100=total damage to plant; 0=no damage to plant) [2, 19]: 20; Control of weed species after post-emergence application, DIGSA (100=total damage to plant; 0=no damage to plant) [3, 19]: 80; Control of weed species after post-emergence application, ECHCG (100=total damage to plant; 0=no damage to plant) [4, 19]: 50; Control of weed species after post-emergence application, ELEIN (100=total damage to plant; 0=no damage to plant) [5, 19]: 10; Control of weed species after post-emergence application, EPHHL (100=total damage to plant; 0=no damage to plant) [6, 19]: 30; Control of weed species after post-emergence application, IPOHE (100=total damage to plant; 0=no damage to plant) [7, 19]: 40; Control of weed species after post-emergence application, LOLPE (100=total damage to plant; 0=no damage to plant) [8, 19]: 0; Control of weed species after post-emergence application, SETFA (100=total damage to plant; 0=no damage to plant) [9, 19]: 30"
O=S(=O)([O-])CC[n+]1ccc(-c2ncc(CO)cn2)cn1 [Compound A170],,,,,,,,,,"pest or weed control at 500 g/ha [1, 20]: 100%; pest or weed control at 500 g/ha [2, 21]: 100%; pest or weed control at 500 g/ha [3, 22]: 40%; pest or weed control at 500 g/ha [4, 23]: 80%; pest or weed control at 500 g/ha [5, 24]: 40%; pest or weed control at 500 g/ha [6, 25]: 70%; pest or weed control at 500 g/ha [7, 26]: 40%; pest or weed control at 500 g/ha [8, 27]: 50%; pest or weed control at 500 g/ha [9, 28]: 80%"
CN(C)c1cnc(-c2cc[n+](CCC(=O)[O-])nc2)nc1 [Compound A42],50%,0%,50%,30%,20%,30%,20%,0%,50%,
O=C(O)CC[n+]1ccc(-c2ccccn2)cn1 [Compound A148],100%,40%,50%,50%,40%,60%,20%,20%,50%,
Cc1cccc(-c2cc[n+](CCS(=O)(=O)[O-])nc2)n1 [Compound A75],60%,30%,50%,50%,60%,60%,20%,50%,70%,
O=S(=O)([O-])CC[n+]1ccc(-c2nccc(C3CC3)n2)cn1 [Compound A50],100%,20%,50%,40%,90%,90%,50%,60%,60%,
O=S(=O)([O-])CC[n+]1ccc(-c2ccc(F)cn2)cn1 [Compound A72],60%,40%,30%,40%,30%,70%,40%,20%,40%,
"COP(=O)(C[n+]1ccc(-c2ncccn2)cn1)OC.O=S(=O)([O-])C(F)(F)F [Compound A238, 1-(dimethoxyphosphorylmethyl)-4-pyrimidin-2-yl-pyridazin-1-ium trifluoromethanesulfonate]",,,,,,,,,,"Control of weed species after post-emergence application, AMAPA (100=total damage to plant; 0=no damage to plant) [1, 19]: 50; Control of weed species after post-emergence application, CHEAL (100=total damage to plant; 0=no damage to plant) [2, 19]: 20; Control of weed species after post-emergence application, DIGSA (100=total damage to plant; 0=no damage to plant) [3, 19]: 50; Control of weed species after post-emergence application, ECHCG (100=total damage to plant; 0=no damage to plant) [4, 19]: 40; Control of weed species after post-emergence application, ELEIN (100=total damage to plant; 0=no damage to plant) [5, 19]: 30; Control of weed species after post-emergence application, EPHHL (100=total damage to plant; 0=no damage to plant) [6, 19]: 50; Control of weed species after post-emergence application, IPOHE (100=total damage to plant; 0=no damage to plant) [7, 19]: 40; Control of weed species after post-emergence application, LOLPE (100=total damage to plant; 0=no damage to plant) [8, 19]: 10; Control of weed species after post-emergence application, SETFA (100=total damage to plant; 0=no damage to plant) [9, 19]: 50"
"CC(CC(=O)O)[n+]1ccc(-c2ncccn2)cn1 (stereo not drawn) [Compound A40, 3-(4-pyrimidin-2-ylpyridazin-1-ium-1-yl)butanoic acid 2,2,2-trifluoroacetate]",90%,70%,90%,90%,90%,90%,100%,90%,100%,
O=S(=O)([O-])CC[n+]1ccc(-c2cncc(C(F)(F)F)n2)cn1 [Compound A110],100%,100%,40%,50%,90%,80%,80%,50%,50%,
O=S(=O)([O-])CC[n+]1ccc(-c2ccnc(C(F)(F)F)c2)cn1 [Compound A165],,,,,,,,,,"pest or weed control at 500 g/ha [1, 20]: 100%; pest or weed control at 500 g/ha [2, 21]: 50%; pest or weed control at 500 g/ha [3, 22]: 60%; pest or weed control at 500 g/ha [4, 23]: 70%; pest or weed control at 500 g/ha [5, 24]: 70%; pest or weed control at 500 g/ha [6, 25]: 50%; pest or weed control at 500 g/ha [7, 26]: 40%; pest or weed control at 500 g/ha [8, 27]: 60%; pest or weed control at 500 g/ha [9, 28]: 60%"
Nc1cc(-c2cc[n+](CCS(=O)(=O)[O-])nc2)ncn1 [Compound A164],,,,,,,,,,"pest or weed control at 500 g/ha [1, 20]: 100%; pest or weed control at 500 g/ha [2, 21]: 80%; pest or weed control at 500 g/ha [3, 22]: 30%; pest or weed control at 500 g/ha [4, 23]: 30%; pest or weed control at 500 g/ha [5, 24]: 80%; pest or weed control at 500 g/ha [6, 25]: 90%; pest or weed control at 500 g/ha [7, 26]: 40%; pest or weed control at 500 g/ha [8, 27]: 40%; pest or weed control at 500 g/ha [9, 28]: 50%"
